Laboratory results taken from patent publication US8415469B2, “Compounds and methods for kinase modulation, and indications therefor” (Plexxikon Inc., priority 2005, dated 2013).

Legend:
Assay type in all cases: biochemical
Btk = target: T1, Btk (Homo sapiens, UniProt Q06187); test: Z'-Lyte FRET kinase assay (Invitrogen), Btk; conditions: read-out: IC50, activity toward kinase Btk
T1 construct: purchased Invitrogen (assay run by Invitrogen)

Kdr = target: T2, Kdr (Homo sapiens, UniProt P35968); test: Z'-Lyte FRET kinase assay (Invitrogen), Kdr; conditions: read-out: IC50, activity toward kinase Kdr
T2 construct: purchased Invitrogen (assay run by Invitrogen)
T2 sequence (P35968 20-1356): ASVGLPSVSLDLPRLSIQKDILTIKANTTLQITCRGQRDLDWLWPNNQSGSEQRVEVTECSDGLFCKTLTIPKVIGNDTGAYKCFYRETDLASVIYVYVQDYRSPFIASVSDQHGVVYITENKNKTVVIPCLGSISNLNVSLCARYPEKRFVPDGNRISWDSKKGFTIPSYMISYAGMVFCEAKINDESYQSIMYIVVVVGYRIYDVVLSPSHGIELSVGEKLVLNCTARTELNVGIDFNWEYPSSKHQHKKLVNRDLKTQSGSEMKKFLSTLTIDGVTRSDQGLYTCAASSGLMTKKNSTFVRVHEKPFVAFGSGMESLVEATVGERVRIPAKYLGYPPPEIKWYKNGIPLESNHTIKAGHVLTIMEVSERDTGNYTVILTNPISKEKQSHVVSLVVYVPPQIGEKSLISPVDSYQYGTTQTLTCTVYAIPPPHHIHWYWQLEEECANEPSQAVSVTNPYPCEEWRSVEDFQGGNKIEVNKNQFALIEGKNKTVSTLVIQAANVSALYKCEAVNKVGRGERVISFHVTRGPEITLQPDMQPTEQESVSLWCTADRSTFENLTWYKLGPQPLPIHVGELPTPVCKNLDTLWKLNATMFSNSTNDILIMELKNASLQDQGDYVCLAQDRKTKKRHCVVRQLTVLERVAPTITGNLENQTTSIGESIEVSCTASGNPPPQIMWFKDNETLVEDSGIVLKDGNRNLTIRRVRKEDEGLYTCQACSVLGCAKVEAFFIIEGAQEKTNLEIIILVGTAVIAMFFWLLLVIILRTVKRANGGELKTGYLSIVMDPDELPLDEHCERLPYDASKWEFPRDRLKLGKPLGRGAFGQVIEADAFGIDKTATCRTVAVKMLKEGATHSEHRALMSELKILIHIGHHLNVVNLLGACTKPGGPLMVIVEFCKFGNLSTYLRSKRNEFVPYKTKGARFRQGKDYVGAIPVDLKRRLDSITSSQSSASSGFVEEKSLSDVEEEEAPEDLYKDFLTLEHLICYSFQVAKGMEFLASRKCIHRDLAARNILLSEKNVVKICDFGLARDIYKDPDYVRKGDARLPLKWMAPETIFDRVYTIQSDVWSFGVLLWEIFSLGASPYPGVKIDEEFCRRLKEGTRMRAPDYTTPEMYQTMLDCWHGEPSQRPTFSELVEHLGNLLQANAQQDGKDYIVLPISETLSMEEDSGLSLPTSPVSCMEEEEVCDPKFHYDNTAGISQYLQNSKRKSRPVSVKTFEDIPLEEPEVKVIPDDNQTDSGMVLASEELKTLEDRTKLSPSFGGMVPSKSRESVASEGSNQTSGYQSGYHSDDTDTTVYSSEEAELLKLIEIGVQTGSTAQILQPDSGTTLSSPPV

MAP2K1 = target: T3, MAP2K1 (Homo sapiens, UniProt Q02750); test: Z'-Lyte FRET kinase assay (Invitrogen), MAP2K1; conditions: read-out: IC50, activity toward kinase MAP2K1
T3 construct: purchased Invitrogen (assay run by Invitrogen)
T3 sequence (Q02750 whole entry): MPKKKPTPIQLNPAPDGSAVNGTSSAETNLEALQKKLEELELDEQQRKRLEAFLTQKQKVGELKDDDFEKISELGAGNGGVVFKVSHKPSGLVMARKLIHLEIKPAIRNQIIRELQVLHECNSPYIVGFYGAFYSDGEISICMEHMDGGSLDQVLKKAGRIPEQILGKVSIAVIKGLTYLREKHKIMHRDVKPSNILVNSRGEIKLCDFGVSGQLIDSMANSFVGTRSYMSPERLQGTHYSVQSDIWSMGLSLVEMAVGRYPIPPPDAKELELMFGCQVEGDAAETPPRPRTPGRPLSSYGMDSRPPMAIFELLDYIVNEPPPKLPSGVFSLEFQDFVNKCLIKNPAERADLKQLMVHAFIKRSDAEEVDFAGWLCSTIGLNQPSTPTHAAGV

Ret = target: T4, Ret (Homo sapiens, UniProt P07949); test: AlphaScreen kinase assay, Ret; conditions: read-out: IC50, activity toward kinase Ret
T4 construct: P1378.pET-SF BI-PTP RET H661-R1012 HIS; made in house
T4 sequence (P07949 with tags, fused parts or gaps): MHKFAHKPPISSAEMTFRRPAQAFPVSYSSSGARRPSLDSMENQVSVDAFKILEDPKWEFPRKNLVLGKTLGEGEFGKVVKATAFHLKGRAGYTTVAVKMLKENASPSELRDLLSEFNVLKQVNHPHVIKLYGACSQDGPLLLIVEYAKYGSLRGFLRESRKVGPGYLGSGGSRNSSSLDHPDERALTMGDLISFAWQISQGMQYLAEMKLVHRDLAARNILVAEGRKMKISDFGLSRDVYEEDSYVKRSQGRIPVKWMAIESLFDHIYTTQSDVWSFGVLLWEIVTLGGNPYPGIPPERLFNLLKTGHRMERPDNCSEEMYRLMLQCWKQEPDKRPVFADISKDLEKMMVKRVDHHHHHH

Stk6 = target: T5, Stk6 (Homo sapiens, UniProt O14965); test: Z'-Lyte FRET kinase assay (Invitrogen), Stk6; conditions: read-out: IC50, activity toward kinase Stk6
T5 construct: purchased Invitrogen (Carlsbad, Calif.), screening service
T5 sequence (O14965 1-403): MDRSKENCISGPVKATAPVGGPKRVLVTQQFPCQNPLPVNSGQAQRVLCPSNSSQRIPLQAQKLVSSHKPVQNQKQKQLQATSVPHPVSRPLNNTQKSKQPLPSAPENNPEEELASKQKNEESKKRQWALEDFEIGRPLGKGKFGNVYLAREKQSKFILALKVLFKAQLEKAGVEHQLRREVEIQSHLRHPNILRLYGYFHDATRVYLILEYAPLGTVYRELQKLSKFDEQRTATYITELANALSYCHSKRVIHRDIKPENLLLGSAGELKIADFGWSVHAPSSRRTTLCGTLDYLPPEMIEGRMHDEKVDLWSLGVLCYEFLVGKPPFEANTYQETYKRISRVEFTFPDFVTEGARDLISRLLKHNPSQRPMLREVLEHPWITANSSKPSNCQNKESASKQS

Jak3 = target: T6, Jak3 (Homo sapiens, UniProt P52333); test: AlphaScreen kinase assay, Jak3; conditions: read-out: IC50, activity toward kinase Jak3
T6 sequence (P52333 1-1124): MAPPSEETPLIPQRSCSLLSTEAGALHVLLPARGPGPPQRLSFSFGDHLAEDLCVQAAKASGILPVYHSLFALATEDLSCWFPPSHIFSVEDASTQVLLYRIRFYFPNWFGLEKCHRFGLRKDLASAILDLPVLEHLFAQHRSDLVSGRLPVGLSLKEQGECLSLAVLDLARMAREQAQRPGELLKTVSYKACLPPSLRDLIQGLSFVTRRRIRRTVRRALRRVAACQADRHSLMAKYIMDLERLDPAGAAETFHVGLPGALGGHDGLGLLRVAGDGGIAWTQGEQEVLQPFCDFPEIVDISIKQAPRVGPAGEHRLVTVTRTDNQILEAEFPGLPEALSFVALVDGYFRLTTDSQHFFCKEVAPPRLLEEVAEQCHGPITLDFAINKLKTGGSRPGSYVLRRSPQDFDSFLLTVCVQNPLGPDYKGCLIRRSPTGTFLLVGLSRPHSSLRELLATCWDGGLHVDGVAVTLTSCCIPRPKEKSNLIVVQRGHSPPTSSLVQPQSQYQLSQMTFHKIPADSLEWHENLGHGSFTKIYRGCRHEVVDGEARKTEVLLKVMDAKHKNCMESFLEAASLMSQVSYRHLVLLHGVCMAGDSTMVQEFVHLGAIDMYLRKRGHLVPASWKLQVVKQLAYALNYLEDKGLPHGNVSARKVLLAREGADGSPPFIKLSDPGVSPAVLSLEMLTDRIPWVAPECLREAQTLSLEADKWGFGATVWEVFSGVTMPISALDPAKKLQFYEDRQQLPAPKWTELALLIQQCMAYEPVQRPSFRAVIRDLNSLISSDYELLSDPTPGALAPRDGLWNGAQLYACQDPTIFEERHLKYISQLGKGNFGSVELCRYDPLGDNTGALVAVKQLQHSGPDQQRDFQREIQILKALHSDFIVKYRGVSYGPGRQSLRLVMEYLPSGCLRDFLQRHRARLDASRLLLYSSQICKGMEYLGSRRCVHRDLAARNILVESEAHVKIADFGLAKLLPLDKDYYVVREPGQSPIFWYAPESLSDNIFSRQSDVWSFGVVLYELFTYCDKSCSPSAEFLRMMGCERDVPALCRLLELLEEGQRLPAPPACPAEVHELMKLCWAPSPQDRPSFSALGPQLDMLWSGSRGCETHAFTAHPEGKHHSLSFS
Source text: AlphaScreen assay was used to screen additional kinases. The assay is similarly dependent on the phosphorylation of a peptide substrate. In this assay, an antibody that recognizes phosphorylated substrate is bound to an acceptor bead. The peptide substrate is attached to biotin, which binds to a donor head that contains streptavidin. Thus phosphorylated substrate is bound by antibody and streptavidin, bringing the donor and acceptor heads into close proximity when kinase is not inhibited. The donor produces singlet oxygen which results in emission from the acceptor when they are in close proximity. Conversely, when kinase is inhibited, the donor and acceptor beads are not associated and the emission from the acceptor is reduced.
AlphaScreen assays were done using compounds dissolved in DMSO to a concentration of 20 mM. The compounds were diluted accordingly to the desired final concentrations in each sample well, using 1:3 serial dilution for a total of 8 concentration points.

B-Raf V600E = target: T7, B-Raf V600E (Homo sapiens, UniProt P15056, V600E); test: AlphaScreen kinase assay, B-Raf V600E; conditions: read-out: IC50, activity toward kinase B-Raf V600E
T7 construct: P4254. pFastBacBD-CDC37 BRAF D437-K722-X, V600E; His6 with pFastBac HT leader (TEV site) (N); made in house; host or cells: Sf9 (baculovirus; chaperone CDC37 co-expressed)
T7 sequence (P15056 with tags, fused parts or gaps V600E): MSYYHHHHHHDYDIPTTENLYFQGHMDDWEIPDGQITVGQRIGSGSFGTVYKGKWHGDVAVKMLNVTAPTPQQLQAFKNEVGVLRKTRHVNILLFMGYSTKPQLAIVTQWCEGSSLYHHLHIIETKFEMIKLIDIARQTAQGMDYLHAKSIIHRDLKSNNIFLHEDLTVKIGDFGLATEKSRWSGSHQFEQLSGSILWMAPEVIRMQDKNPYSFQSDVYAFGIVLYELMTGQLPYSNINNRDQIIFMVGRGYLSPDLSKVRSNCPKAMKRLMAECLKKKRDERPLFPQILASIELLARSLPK

FGFR1 = target: T8, FGFR1 (Homo sapiens, UniProt P11362, C488A/C584S); test: AlphaScreen kinase assay, FGFR1; conditions: read-out: IC50, activity toward kinase FGFR
T8 construct: P1351.pET N6 BI-PTP FGFR A458-E765-X C488A, C584S; made in house; host or cells: E. coli (PTP1B co-expressed)
T8 sequence (P11362 458-765 C488A/C584S): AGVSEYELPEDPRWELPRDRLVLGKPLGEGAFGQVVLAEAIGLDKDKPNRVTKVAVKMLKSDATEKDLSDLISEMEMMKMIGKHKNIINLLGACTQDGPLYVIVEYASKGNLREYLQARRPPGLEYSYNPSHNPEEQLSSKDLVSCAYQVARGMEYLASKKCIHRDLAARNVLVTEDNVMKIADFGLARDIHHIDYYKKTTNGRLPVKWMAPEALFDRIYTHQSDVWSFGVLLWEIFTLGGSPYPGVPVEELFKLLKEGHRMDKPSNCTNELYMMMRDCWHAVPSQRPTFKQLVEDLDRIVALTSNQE

Yes = target: T9, Yes (Homo sapiens, UniProt P07947); test: Z'-Lyte FRET kinase assay (Invitrogen), Yes; conditions: read-out: IC50, activity toward kinase Yes
T9 construct: purchased Invitrogen (Carlsbad, Calif.), screening service
T9 sequence (P07947 whole entry): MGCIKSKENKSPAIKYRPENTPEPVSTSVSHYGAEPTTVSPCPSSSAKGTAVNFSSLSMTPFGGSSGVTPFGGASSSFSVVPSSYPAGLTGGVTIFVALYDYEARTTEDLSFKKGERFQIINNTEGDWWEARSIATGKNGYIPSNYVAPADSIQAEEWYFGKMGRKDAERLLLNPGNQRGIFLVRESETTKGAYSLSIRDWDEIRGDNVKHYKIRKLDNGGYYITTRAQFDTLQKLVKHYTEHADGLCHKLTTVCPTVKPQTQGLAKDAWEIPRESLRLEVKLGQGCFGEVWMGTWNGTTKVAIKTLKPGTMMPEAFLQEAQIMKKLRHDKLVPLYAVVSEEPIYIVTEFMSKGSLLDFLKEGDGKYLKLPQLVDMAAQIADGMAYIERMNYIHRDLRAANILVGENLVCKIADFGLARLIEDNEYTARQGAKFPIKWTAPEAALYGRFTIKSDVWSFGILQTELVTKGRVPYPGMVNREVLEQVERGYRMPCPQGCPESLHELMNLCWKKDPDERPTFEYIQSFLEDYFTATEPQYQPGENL
Outline: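 Serially diluted compound (1% DMSO final) is mixed with kinase plus 2 μM peptide substrate in pH 7.5 HEPES buffer, then ATP is added to 10 μM. After 1 h at room temperature, site-specific protease is added for another hour, reactions are stopped and fluorescence ratio measured.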

Flt4 = target: T10, Flt4 (Homo sapiens, UniProt P35916); test: AlphaScreen kinase assay, Flt4; conditions: read-out: IC50, activity toward kinase Flt4
T10 construct: purchased ProQinase GmbH (Freiburg, Germany)
Outline: (§1)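 Compounds in DMSO (20 mM stock) were diluted 1:3 across 8 points. Each kinase phosphorylated a biotin-labelled peptide. Signal generated when donor and acceptor beads came close via antibody binding of phosphorylated substrate.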

Jnk2 = target: T11, Jnk2 (Homo sapiens, UniProt P45984); test: AlphaScreen kinase assay, Jnk2; conditions: read-out: IC50, activity toward kinase Jnk2
T11 construct: purchased Roche Protein Expression Group (Indianapolis, IN)
Outline: as §1

Jnk3 = target: T12, Jnk3 (Homo sapiens, UniProt P53779); test: AlphaScreen kinase assay, Jnk3; conditions: read-out: IC50, activity toward kinase Jnk3
T12 construct: purchased Upstate Biotechnology
T12 sequence (P53779 whole entry): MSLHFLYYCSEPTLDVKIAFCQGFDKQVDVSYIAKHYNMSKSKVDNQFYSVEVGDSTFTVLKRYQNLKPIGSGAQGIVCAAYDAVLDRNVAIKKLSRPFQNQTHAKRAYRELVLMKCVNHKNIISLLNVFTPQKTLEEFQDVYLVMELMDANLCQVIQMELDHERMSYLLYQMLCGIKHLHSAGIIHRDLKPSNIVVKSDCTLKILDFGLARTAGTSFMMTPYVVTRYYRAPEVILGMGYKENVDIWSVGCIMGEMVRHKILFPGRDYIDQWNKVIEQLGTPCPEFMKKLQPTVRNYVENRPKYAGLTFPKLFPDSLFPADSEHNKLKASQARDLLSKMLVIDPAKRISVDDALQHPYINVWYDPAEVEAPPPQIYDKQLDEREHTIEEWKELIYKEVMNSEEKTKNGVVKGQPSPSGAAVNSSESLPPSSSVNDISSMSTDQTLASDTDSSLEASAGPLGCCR

PKC theta = target: T13, PKC theta (Homo sapiens, UniProt Q04759); test: Z'-Lyte FRET kinase assay (Invitrogen), PKC theta; conditions: read-out: IC50, activity toward kinase PKC theta
T13 construct: purchased Invitrogen (Carlsbad, Calif.), screening service
Source text: The effect of potential modulators of kinase activity can be measured in a variety of different assays known in the art. For example, direct radiometric, indirect FRET or AlphaScreen assays may be used to assess the level of phosphorylation of a substrate in the presence of test compounds in order to determine the inhibitory affect of the compound on the kinase. Invitrogen (Carlsbad, Calif.) uses a FRET based assay for Btk, EGFR, EphB2, Flt3, lrak4, Kdr, MAP2K1, MAPKAPK2, PDGFRB, PKC theta, Stk6 and Yes. For these assays, compounds of the invention were screened by Invitrogen using Z′-Lyte™ kinase assay.
Briefly, the Invitrogen kinase assay involves use of a specific peptide substrate optimized for each kinase, containing a fluorophore at each end that make up the FRET pair. The peptide sensitivity to proteolytic cleavage depends on phosphorylation of the peptide. Non-phosphorylated peptide is cleaved by a protease while peptide phosphorylated by the kinase is not cleaved. Cleavage of the peptide disrupts the FRET between the donor (coumarin) and acceptor (fluorescein) fluorophores, resulting in an increase in the ratio of donor emission to acceptor emission. The emission ratio of coumarin to fluorescein is used to assess the reaction progress. The extent of phosphorylation is determined from the emission ratio, which is low when the kinase is active (phosphorylated peptide is not cleaved, FRET pair connected) or higher for inhibited kinase (non-phosphorylated peptide is cleaved, FRET pair separated). Thus, the assay involves a kinase reaction in the presence of varying concentrations of a given compound, a development reaction with site specific protease, and detection of the fluorescent emission ratio of coumarin and fluorscein. […] Reaction conditions for each kinase are determined to provide optimal reaction times, incubation temperature, kinase and ATP concentrations. Test samples are made up in 1× kinase buffer (50 mM HEPES pH 7.5, 50 mM MgCl2, 5 mM EGTA, 0.05% BRIJ-35) and compound at desired concentration prepared in DMSO such that the final DMSO is 1%. […] Typically, assay plates are prepared to 10 μl final volume per sample, adding 2.5 μl of compound at 4× the desired concentration in 4% DMSO (serial dilution of compound provides concentration curve), 5 μl of the desired kinase mixed with Z′-LYTE™ peptide substrate (2× in 2× kinase buffer, final peptide at 2 μM), and 2.5 μl of 4×ATP solution. All kinase except for MAP2K1 were at 10 μM ATP in the kinase reaction, while MAP2K1 was at 100 μM. Samples are mixed and the kinase reaction is incubated 1 hour at room temperature, after which 5 μl of development solution is added and mixed. After incubation for another 1 hour at room temperature, 5 μl of stop reagent is added to each sample and mixed. The fluorescence signals are measured to determine the emission ratio.

Pyk2 = target: T14, Pyk2 (Homo sapiens, UniProt Q14289); test: AlphaScreen kinase assay, Pyk2; conditions: read-out: IC50, activity toward kinase Pyk2
T14 construct: purchased Upstate Biotechnology
T14 sequence (Q14289 whole entry): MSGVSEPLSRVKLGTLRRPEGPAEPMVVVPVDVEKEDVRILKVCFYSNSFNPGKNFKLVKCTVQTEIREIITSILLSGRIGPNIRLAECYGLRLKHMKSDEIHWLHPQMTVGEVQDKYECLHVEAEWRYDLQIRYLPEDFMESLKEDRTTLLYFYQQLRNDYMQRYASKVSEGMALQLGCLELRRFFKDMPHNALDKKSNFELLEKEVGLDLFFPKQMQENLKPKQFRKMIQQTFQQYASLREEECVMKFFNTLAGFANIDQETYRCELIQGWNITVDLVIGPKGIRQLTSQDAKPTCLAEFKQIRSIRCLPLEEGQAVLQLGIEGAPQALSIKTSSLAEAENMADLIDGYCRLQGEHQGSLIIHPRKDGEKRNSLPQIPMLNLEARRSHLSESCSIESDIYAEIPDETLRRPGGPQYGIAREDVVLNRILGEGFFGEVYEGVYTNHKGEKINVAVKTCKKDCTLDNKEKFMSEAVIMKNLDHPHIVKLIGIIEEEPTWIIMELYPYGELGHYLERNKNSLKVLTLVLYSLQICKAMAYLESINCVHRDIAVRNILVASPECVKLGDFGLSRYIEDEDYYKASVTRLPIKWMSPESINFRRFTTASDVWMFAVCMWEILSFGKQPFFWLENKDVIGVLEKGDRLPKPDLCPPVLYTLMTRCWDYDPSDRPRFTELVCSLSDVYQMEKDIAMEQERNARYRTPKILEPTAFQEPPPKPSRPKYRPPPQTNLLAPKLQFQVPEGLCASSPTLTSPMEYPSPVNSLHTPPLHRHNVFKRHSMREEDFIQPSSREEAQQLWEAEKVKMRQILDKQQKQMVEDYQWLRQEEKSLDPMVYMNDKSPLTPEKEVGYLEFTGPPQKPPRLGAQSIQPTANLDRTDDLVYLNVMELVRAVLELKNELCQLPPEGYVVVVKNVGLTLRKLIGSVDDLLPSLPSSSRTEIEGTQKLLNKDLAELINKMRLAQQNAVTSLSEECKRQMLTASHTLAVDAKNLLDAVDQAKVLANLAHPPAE

T1 sequence (Q06187 whole entry): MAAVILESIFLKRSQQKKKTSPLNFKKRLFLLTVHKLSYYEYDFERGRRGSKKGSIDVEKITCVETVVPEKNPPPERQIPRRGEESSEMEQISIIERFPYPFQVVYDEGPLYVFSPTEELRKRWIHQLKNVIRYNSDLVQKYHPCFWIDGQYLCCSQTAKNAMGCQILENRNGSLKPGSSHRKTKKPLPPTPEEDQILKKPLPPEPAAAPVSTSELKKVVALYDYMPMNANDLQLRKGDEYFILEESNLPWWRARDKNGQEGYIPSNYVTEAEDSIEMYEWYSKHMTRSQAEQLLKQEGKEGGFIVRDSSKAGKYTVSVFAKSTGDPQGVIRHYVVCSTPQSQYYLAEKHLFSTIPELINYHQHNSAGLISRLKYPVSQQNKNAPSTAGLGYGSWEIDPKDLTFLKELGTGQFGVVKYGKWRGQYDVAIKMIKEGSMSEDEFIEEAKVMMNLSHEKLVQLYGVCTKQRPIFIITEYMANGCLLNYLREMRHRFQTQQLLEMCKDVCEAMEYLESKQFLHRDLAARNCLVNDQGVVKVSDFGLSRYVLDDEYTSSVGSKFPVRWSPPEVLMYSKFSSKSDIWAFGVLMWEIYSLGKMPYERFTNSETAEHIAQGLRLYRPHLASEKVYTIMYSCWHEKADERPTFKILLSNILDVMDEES

| Compound | IC50 (Kdr) [µM] | IC50 (Ret) [µM] | IC50 (Jak3) [µM] | IC50 (B-Raf V600E) [µM] | further results |
| --- | --- | --- | --- | --- | --- |
| O=C(c1ccccc1F)c1c[nH]c2nccc(-c3cccnc3)c12 [Compound P-0061] | ≤ 10 | ≤ 10 | ≤ 10 | – | IC50 (Btk): ≤ 10 µM; IC50 (MAP2K1): ≤ 10 µM; IC50 (Stk6): ≤ 10 µM |
| O=C(c1cc(F)ccc1F)c1c[nH]c2nccc(-c3ccsc3)c12 [Compound P-0119] | – | ≤ 10 | ≤ 10 | ≤ 10 | IC50 (FGFR1): ≤ 10 µM; IC50 (Stk6): ≤ 10 µM |
| CS(=O)(=O)c1cccc(-c2ccnc3[nH]cc(C(=O)c4ccccc4F)c23)c1 [Compound P-0138] | – | ≤ 10 | ≤ 10 | – | IC50 (Btk): ≤ 10 µM; IC50 (Yes): ≤ 10 µM |
| O=C(c1cc(F)ccc1F)c1c[nH]c2nccc(-c3cc(F)cc(F)c3)c12 [Compound P-0215] | – | ≤ 10 | ≤ 10 | ≤ 10 | IC50 (FGFR1): ≤ 10 µM; IC50 (Flt4): ≤ 10 µM |
| COc1ccc(-c2c[nH]c3ncccc23)cc1OC [Compound P-0238] | – | – | – | – | IC50 (Jnk2): ≤ 10 µM; IC50 (Jnk3): ≤ 10 µM; IC50 (PKC theta): ≤ 10 µM |
| CC(C)(C)OC(=O)Nc1ccc(F)c(C(O)c2c[nH]c3ncc(Br)cc23)c1F (stereo not shown) [Compound P-0318, {3-[(5-Bromo-1H-pyrrolo[2,3-b]pyridin-3-yl)-hydroxy-methyl]-2,4-difluoro-phenyl}-carbamic acid tert-butyl ester] | – | – | ≤ 10 | ≤ 10 | IC50 (Pyk2): ≤ 10 µM |
| O=C(c1ccccc1F)c1c[nH]c2nccc(-c3ccccc3F)c12 [Compound P-0730] | ≤ 10 | ≤ 10 | ≤ 10 | ≤ 10 | IC50 (FGFR1): ≤ 10 µM |

More lines, main results first:

| IC50 (Kdr) [µM] | IC50 (Ret) [µM] | IC50 (Jak3) [µM] | IC50 (B-Raf V600E) [µM] | Compound | further results |
| --- | --- | --- | --- | --- | --- |
| ≤ 10 | ≤ 10 | ≤ 10 | ≤ 10 | O=C(O)/C=C/c1cccc(-c2ccnc3[nH]cc(C(=O)c4ccccc4F)c23)c1 [Compound P-0108] | IC50 (Btk): ≤ 10 µM; IC50 (MAP2K1): ≤ 10 µM |
| ≤ 10 | ≤ 10 | ≤ 10 | ≤ 10 | O=C(O)/C=C/c1cccc(-c2ccnc3[nH]cc(C(=O)c4cc(F)ccc4F)c23)c1 [Compound P-0141] | – |
| – | – | ≤ 10 | ≤ 10 | OCc1cccc(-c2ccnc3[nH]cc(Sc4cccc(F)c4)c23)c1 [Compound P-0187] | IC50 (Stk6): ≤ 10 µM |
| – | – | ≤ 10 | – | CCCC(=O)Nc1ccc(F)c(C(O)c2c[nH]c3ncc(OC)cc23)c1F (stereo not shown) [Compound P-01367] | – |
| – | – | ≤ 10 | – | NC(=O)c1cccc(-c2cnc3[nH]cc(Cc4ccccc4O)c3c2)c1 [Compound P-01385] | – |
